Experiments:
sodium channel = format: cell-based, human or rat; conditions: known cell line that expresses a sodium channel
CYP3A4 = target: T1, CYP3A4 (Homo sapiens, UniProt P08684); assay: Cytochrome P450 (CYP450) inhibition assay, Vivid fluorescence, CYP3A4; format: in vitro ADME; conditions: P450 Baculosomes (CYP3A4), probe Vivid substrate (fluorogenic, not named)
T1 construct: purchased Invitrogen Corporation Vivid CYP450 Screening Kit (catalogue number not given)

CYP2C19 = CYP2C19 (Homo sapiens, UniProt P33261); assay: in vitro
Source text: (§1) CYP450 (CYP) is a designation for a superfamily of enzymes. Each family consists of one or more subfamilies and each subfamily contains one or more specific CYP isoforms. The Cytochrome P450 (CYP450) Inhibition Assay is a fluorescence-based assay using a cytochrome CYP isozyme for screening of compounds of the invention to determine the level of CYP inhibition by a specific compound. The assay is based on the CYP inhibition kit described by Vivid CYP450 Screening Kit Protocol, 2005, Invitrogen Corporation (Invitrogen Corporation, 1600 Faraday Avenue, Carlsbad, Calif. 92008, USA).
(§2) This assay is designed to assess compounds by quantifying the inhibition of the predominant human CYP isozymes involved in hepatic drug metabolism. […] The standard method for evaluating specific CYP isozyme inhibition is to determine the conversion rate of a probe substrate into its metabolite, in the presence and absence of the potential inhibitor. Quantification of the metabolite is achieved by HPLC or by using a probe substrate (Table 3) that is metabolized into a fluorescent product (fluorescent assay).
(§3) This assay can be used for single concentration screening or for IC50 determination. In a single concentration screening assay, the final assay concentration of the test compound is 10 μM. In an IC50 determination assay, IC50 may be determined using a 3, 6, or 12 point curve in triplicate with a chosen starting concentration diluted serially.
(§4) In the Preparation Stage, the test compounds, controls (acetonitrile (ACN) or Dimethyl sulfoxide (DMSO) and No Baculosomes), and known inhibitors (Table 4) were diluted to 10% ACN or DMSO in water at appropriate concentrations.

CYP2D6 = CYP2D6 (Homo sapiens, UniProt P10635); assay: in vitro
Source text: as §1, §2, §3, §4

CYP2C9 = CYP2C9 (Homo sapiens, UniProt P11712); assay: in vitro
Source text: as §1, §2, §3, §4

SK-N-BE2C (NaV1.8) = SK-N-BE2C (NaV1.8) (Homo sapiens, UniProt Q9Y5Y9); format: cell-based
CHO-K1 (NaV1.4) = format: cell-based, Chinese Hamster
[1] = tested on: SH-SY5Y (NaV1.9 and NaV1.7); format: cell-based, Human
PC12 (Nav1.2) = PC12 (Nav1.2) (Rattus norvegicus, UniProt P04775)
L6 (Nav1.4 and 1.5) = format: cell-based, rat

T1 sequence (P08684 whole entry): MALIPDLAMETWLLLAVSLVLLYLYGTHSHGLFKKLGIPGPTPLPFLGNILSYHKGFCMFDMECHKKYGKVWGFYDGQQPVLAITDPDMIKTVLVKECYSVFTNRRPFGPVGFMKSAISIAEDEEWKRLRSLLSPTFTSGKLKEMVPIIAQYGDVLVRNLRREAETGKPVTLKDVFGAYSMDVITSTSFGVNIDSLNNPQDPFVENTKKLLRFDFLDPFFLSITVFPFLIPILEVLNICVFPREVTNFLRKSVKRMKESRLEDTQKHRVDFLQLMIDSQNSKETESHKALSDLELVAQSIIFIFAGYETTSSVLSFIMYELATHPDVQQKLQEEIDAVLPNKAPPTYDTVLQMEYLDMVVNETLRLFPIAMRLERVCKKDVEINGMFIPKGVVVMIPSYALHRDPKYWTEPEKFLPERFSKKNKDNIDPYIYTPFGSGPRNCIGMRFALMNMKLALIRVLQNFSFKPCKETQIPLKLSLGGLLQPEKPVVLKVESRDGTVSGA
Chain of CHO-K1 (NaV1.4) (A0A9J7H6F9 1-1930): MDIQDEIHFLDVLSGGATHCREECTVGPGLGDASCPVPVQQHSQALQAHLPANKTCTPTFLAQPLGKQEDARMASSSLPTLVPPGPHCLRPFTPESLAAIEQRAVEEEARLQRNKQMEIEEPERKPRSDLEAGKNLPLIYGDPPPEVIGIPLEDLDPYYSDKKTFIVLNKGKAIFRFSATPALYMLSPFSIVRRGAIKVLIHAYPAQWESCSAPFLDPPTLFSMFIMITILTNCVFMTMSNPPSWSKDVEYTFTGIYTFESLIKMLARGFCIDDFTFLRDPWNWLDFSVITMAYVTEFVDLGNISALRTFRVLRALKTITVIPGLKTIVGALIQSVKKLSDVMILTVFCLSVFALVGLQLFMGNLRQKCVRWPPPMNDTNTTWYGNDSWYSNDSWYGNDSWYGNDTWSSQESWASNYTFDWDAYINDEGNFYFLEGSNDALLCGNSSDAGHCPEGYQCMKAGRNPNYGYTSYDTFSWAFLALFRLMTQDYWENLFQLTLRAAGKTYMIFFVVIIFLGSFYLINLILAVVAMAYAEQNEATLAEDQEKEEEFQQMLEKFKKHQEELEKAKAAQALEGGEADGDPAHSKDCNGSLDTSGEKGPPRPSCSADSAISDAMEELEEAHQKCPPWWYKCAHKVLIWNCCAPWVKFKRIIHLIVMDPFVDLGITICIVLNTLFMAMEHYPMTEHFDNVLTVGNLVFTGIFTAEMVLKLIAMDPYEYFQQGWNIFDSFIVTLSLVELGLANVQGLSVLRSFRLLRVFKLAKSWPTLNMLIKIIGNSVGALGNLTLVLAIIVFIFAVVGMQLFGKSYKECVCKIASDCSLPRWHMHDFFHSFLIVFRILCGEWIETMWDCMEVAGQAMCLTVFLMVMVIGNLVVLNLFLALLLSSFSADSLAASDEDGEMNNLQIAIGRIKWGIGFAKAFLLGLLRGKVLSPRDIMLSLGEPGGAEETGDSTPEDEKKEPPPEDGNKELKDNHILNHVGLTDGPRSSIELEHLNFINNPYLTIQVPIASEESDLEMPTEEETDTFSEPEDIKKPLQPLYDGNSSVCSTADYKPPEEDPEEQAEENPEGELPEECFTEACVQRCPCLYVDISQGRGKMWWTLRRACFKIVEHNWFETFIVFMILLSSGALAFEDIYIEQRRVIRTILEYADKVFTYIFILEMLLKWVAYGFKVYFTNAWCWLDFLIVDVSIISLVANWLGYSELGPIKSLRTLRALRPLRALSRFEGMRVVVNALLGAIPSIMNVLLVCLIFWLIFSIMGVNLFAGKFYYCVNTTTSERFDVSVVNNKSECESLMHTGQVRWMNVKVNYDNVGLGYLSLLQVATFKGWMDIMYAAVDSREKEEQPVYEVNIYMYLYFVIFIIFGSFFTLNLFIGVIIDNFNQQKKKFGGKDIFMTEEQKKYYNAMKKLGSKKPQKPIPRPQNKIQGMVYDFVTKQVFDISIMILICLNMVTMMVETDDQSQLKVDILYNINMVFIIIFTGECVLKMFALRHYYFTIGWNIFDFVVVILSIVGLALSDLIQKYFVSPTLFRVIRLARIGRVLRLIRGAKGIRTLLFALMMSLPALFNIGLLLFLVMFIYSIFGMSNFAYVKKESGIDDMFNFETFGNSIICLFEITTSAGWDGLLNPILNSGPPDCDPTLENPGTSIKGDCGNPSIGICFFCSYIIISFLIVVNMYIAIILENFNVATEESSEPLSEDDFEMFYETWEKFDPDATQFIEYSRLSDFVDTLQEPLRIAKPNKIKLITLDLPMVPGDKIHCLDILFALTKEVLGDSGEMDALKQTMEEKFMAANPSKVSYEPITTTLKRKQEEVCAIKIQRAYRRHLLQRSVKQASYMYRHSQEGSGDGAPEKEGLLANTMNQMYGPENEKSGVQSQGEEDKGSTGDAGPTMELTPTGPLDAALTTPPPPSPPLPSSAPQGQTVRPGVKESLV
Chain of CYP2C19 (P33261 whole entry, canonical isoform): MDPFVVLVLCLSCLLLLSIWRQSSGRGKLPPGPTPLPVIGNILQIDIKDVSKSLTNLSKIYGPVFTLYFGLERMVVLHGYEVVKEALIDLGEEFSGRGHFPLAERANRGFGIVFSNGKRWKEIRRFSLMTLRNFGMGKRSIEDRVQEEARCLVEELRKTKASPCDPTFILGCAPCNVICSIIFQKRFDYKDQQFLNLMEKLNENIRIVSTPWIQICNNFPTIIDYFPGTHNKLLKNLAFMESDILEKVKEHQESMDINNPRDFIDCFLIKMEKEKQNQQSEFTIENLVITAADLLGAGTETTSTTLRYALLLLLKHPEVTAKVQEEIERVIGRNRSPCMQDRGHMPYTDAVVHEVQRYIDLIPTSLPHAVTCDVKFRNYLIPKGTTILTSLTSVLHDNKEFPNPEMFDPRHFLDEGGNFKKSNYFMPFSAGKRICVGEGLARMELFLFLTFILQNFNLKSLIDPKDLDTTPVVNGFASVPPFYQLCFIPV
Chain of PC12 (Nav1.2) (P04775 whole entry, looked up): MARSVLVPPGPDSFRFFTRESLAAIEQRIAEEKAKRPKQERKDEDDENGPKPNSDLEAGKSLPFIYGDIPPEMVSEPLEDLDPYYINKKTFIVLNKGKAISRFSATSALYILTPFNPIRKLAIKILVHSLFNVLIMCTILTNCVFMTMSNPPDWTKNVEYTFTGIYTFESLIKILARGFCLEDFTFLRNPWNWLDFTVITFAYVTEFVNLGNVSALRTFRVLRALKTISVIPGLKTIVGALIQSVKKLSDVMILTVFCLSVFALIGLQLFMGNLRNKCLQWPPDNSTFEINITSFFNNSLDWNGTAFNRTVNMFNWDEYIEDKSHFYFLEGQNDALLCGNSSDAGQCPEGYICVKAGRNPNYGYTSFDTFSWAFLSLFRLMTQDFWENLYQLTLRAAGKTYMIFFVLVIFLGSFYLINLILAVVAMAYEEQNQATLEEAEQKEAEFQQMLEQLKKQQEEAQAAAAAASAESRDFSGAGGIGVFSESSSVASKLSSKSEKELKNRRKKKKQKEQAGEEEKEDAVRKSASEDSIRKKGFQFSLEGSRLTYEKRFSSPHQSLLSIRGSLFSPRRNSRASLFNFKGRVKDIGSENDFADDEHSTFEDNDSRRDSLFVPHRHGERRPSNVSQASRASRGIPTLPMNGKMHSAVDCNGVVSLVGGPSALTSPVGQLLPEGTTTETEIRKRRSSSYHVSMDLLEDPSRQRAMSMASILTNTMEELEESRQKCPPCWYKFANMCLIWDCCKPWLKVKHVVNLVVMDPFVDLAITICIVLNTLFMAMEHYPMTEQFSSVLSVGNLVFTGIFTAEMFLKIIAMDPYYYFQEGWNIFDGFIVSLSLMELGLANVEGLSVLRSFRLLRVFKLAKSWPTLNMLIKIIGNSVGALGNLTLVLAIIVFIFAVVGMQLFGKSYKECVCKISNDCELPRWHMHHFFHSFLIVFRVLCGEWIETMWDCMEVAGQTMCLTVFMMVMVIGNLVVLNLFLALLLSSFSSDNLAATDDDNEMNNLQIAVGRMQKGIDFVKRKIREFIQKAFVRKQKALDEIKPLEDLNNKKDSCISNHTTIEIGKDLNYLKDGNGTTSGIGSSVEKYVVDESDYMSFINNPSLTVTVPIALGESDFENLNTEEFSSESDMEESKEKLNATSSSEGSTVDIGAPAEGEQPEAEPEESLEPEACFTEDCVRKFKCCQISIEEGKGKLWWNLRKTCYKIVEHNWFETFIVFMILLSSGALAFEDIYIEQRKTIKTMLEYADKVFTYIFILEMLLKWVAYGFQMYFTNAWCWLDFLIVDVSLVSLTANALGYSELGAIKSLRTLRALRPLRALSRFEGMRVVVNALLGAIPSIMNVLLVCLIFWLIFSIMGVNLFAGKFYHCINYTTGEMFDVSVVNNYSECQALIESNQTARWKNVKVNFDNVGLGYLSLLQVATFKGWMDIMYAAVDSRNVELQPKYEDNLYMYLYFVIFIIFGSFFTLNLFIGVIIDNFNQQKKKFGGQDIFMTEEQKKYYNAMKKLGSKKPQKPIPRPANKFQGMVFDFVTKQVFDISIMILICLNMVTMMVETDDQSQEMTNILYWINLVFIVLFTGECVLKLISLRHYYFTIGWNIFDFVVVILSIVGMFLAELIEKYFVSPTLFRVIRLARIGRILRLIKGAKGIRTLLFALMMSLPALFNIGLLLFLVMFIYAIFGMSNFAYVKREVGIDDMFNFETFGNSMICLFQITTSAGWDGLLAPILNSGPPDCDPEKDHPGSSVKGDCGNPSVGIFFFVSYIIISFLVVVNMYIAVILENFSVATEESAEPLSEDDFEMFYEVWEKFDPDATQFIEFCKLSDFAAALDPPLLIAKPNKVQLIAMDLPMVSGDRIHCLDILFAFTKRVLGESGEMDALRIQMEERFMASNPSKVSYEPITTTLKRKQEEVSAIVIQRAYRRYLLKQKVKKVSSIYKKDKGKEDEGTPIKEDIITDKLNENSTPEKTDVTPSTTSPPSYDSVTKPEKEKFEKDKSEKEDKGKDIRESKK

Compound	IC50 (sodium channel) [nM]	inhibition at 10 µM (CYP3A4) [%]	melting point [°C]	also measured
COc1ccc2c(n1)C1(CO2)C(=O)N(C[C@H]2CCCO2)c2cccc(Br)c21 (stereo partly drawn) [Example 1, 4′-bromo-5-methoxy-1′-[(2R)-tetrahydrofuran-2-ylmethyl]spiro[furo[3,2-b]pyridine-3,3′-indol]-2′(1′H)-one]	100 to 1000	< 50	110 to 112	
COc1ccc2c(n1)C1(CO2)C(=O)N(C[C@H]2CCCO2)c2ccccc21 (stereo partly drawn) [Example 2, 5-methoxy-1′-[(2R)-tetrahydrofuran-2-ylmethyl]spiro[furo[3,2-b]pyridine-3,3′-indol]-2′(1′H)-one]			52 to 56	
COc1ccc2c(n1)C1(CO2)C(=O)N(Cc2ccc3c(c2)OCCO3)c2ccccc21 (stereo not drawn) [Example 3, 1′-(2,3-dihydro-1,4-benzodioxin-6-ylmethyl)-5-methoxyspiro[furo[3,2-b]pyridine-3,3′-indol]-2′(1′H)-one]	1 to 100		144 to 146	
O=C1N(C[C@H]2CCCO2)c2ccccc2C12COc1c[nH]c(=O)cc12 (stereo partly drawn) [Example 4, 1′-[(2R)-tetrahydrofuran-2-ylmethyl]spiro[furo[2,3-c]pyridine-3,3′-indole]-2′,5(1′H,6H)-dione]	1000 to 10000	< 50	> 250	
O=C1Nc2ncccc2C12COc1cc3c(cc12)OCCO3 (stereo not drawn) [Example 6, 2,3-dihydrospiro[furo[2,3-g][1,4]benzodioxine-8,3′-pyrrolo[2,3-b]pyridin]-2′(1′H)-one]	100 to 1000	< 50	> 250	
O=C1N(Cc2ccccn2)c2ncccc2C12COc1cc3c(cc12)OCCO3 (stereo not drawn) [Example 7, 1′-(pyridin-2-ylmethyl)-2,3-dihydrospiro[furo[2,3-g][1,4]benzodioxine-8,3′-pyrrolo[2,3-b]pyridin]-2′(1′H)-one]	1 to 100	< 50		
O=C1N(Cc2ncccc2C(F)(F)F)c2ncccc2C12COc1cc3c(cc12)OCCO3 (stereo not drawn) [Example 8, 1′-{[3-(trifluoromethyl)pyridin-2-yl]methyl}-2,3-dihydrospiro[furo[2,3-g][1,4]benzodioxine-8,3′-pyrrolo[2,3-b]pyridin]-2′(1′H)-one]	100 to 1000	< 50		
O=C1Nc2cccnc2C12COc1cc3c(cc12)OCCO3 (stereo not drawn) [Example 10, 2,3-dihydrospiro[furo[2,3-g][1,4]benzodioxine-8,3′-pyrrolo[3,2-b]pyridin]-2′(1′H)-one]	1000 to 10000	< 50	> 250	
O=C1N(Cc2ccccn2)c2cccnc2C12COc1cc3c(cc12)OCCO3 (stereo not drawn) [Example 11, 1′-(pyridin-2-ylmethyl)-2,3-dihydrospiro[furo[2,3-g][1,4]benzodioxine-8,3′-pyrrolo[3,2-b]pyridin]-2′(1′H)-one]	100 to 1000	< 50	146 to 147	
O=C1N(Cc2ncccc2C(F)(F)F)c2cccnc2C12COc1cc3c(cc12)OCCO3 (stereo not drawn) [Example 12, 1′-{[3-(trifluoromethyl)pyridin-2-yl]methyl}-2,3-dihydrospiro[furo[2,3-g][1,4]benzodioxine-8,3′-pyrrolo[3,2-b]pyridin]-2′(1′H)-one]	100 to 1000	< 50	> 250	
COc1ccc2c(n1)C1(CO2)C(=O)N(Cc2ncccc2C(F)(F)F)c2ccccc21 (stereo not drawn) [Example 13, 5-methoxy-1′-{[3-(trifluoromethyl)pyridin-2-yl]methyl}spiro[furo[3,2-b]pyridine-3,3′-indol]-2′(1′H)-one]	100 to 1000	< 50	195 to 198	
CC(=O)N1CCN(c2ccc(OCC3COC(Cn4ccnc4)(c4ccc(Cl)cc4Cl)O3)cc2)CC1 (stereo not drawn) [Ketoconazole]				inhibition at 7.62 µM (CYP2C19): 65%
C=C[C@H]1C[N@@]2CC[C@H]1C[C@@H]2[C@@H](O)c1ccnc2ccc(OC)cc12 [Quinidine]				inhibition at 0.0137 µM (CYP2D6): 55%
Nc1ccc(S(=O)(=O)Nc2ccnn2-c2ccccc2)cc1 [Sulfaphenazole]				inhibition at 0.42 µM (CYP2C9): 50%
NC1=N[C@H](O)[C@H]2[C@H]3O[C@]4(O)O[C@@H]([C@@H](O)[C@@]2(N1)[C@@H]4O)[C@]3(O)CO [TTX, tetrodotoxin]				block of the increase in [14C] guanidine influx (SK-N-BE2C (NaV1.8)): TTX partially blocked influx; block of the increase in [14C] guanidine influx (CHO-K1 (NaV1.4)): completely blocked using TTX.; block of the increase in [14C] guanidine influx [1]: background was partially blocked; block of the increase in [14C] guanidine influx (PC12 (Nav1.2)): guanidine influx was completely; block of the increase in [14C] guanidine influx (L6 (Nav1.4 and 1.5)): partially blocked by TTX at 100
